Broadly, the IC20 is the concentration needed for an effect of 20%. A lower IC20 goes with an effect from little substance. The IC50 is the concentration that inhibits the measured activity by half. Higher therefore signals a need for much substance.

For one data set, the system named is S. pneumoniae 157E. Nature of the data set: In vitro MIC assay, S. pneumoniae 157E. In kind it is cell-based. Conditions: Streptococcus pneumoniae, broth supplemented with lysed horse blood, 35° C., 18-24 hours.
Another data set deals with S. aureus RN450. Nature of the data set: In vitro MIC assay, S. aureus RN450. In kind it is cell-based. Conditions: Staphylococcus aureus, broth microdilution, 35° C., 18-24 hours. In general terms: In broth dilution the organism is exposed to a series of concentrations in liquid medium.
The subject of the next data set is S. aureus RN4250. Nature of the data set: In vitro MIC assay, S. aureus RN4250. In kind it is cell-based. Conditions: Staphylococcus aureus, broth microdilution, 35° C., 18-24 hours.
Data set [1] has as its system H. influenza (ATCC 49247). As to the kind of experiment: In vitro MIC assay, H. influenza (ATCC 49247). In kind it is cell-based. The settings on record: read-out: MIC H. influenza (ATCC 49247).
Another data set deals with COS-1 or CHO cell. As to the kind of experiment: Mammalian cell cytotoxicity assay (Resazurin; Alamar Blue). In kind it is cell-based. Conditions: COS-1 or CHO cells, 24 hour incubation. As to the method: To predict the in vivo risks associated with the compounds of the invention, a soluble, non-toxic redox dye (“Resazurin”; Alamar Blue) was used to assess a compound's effect on cellular metabolism. COS-1 or CHO cell suspensions were prepared, seeded into 96-well black-walled microtiter plates, and incubated overnight at 37° C., in 5% CO2 and approximately 95% humidity. On the next day, serial dilutions of test drug were prepared and transferred to cell plates. Following a 24 hour incubation period, the media/drug was aspirated, and 50 μL of resazurin was added. After a 2 hour incubation, fluorescence measurements were taken (excitation […], emission 590 nm) and toxic effects in treated versus control cells were compared based on the degree of fluorescence in each well.
In general terms: Alamar Blue is a resazurin reagent that responds to reducing activity.

A further data set deals with S. aureus MRSA5. As to the kind of experiment: In vitro MIC assay, S. aureus MRSA5. In kind it is cell-based. The settings on record: Staphylococcus aureus, broth microdilution, 35° C., 18-24 hours.
The subject of data set [2] is Mouse 3T3 fibroblast cells. As to the kind of experiment: Phototoxicity assay (neutral red). In kind it is cell-based. Conditions: 3T3 cells; for phototoxicity at 30 μM, incubated in the UV light: UV light 1.6-1.8 mW/cm^2, 30 μM. The protocol:
Mouse 3T3 fibroblast cells were harvested and plated at a concentration of 1×10^5 cells/mL. Drug dilutions were made in HBSS and added to the plates. Duplicate plates were then incubated in the dark (for controls), or under UV light (meter reading of 1.6-1.8 mW/cm^2) for 50 minutes. Cells were then washed with HBSS, fresh medium was added, and plates were then incubated overnight. The following day, neutral red was added as an indicator of cell viability and plates were incubated for an additional 3 hours. Cells were then washed with HBSS and a solution of 50% EtOH, 10% glacial acetic acid is added. After a 20 minute incubation period, plates absorbance at 535 nm were read using a Wallac Victor 5 spectrophotometer. The phototoxicity in light-treated and control cultures was then compared.

The subject of a further data set is E. coli (ATCC 25922). Nature of the data set: In vitro MIC assay, E. coli (ATCC 25922). In kind it is cell-based. The settings on record: Escherichia coli, ATCC25922; broth microdilution, 35° C., 18-24 hours.
The next data set relates to E. coli translation. As to the kind of experiment: In vitro translation assay for inhibition of bacterial protein synthesis (E. coli S30 Extract System, luciferase). The settings on record: 37° C., 1 hour, luciferase luminescence. In kind it is biochemical. As to the method:
As a further measure of antibacterial activity, an E. coli S30 Extract System was used to quantitate inhibition of E. coli translation by tetracycline derivatives. This system contained all required components for translation, including a nucleic acid template which, when translated, produces functional luciferase. The reactions were set up with E. coli S30 extract, amino acids, DNA template and selected tetracycline compounds at concentrations of 100, 50, 25, 10, 5, and 1 μg/ml. The reactions were incubated at 37° C. for 1 hour and analyzed by adding the reaction mix to Steady-Glo Luciferase Assay substrate (Promega, Madison Wis.). Luminescence was measured with the Wallac Victor5 plate reader and inhibition is calculated by comparing luciferase activity in experimental reactions versus controls.

For the next data set, the system named is E. coli MG 1655 DWAK. Nature of the data set: In vitro MIC assay, E. coli MG 1655 DWAK. In kind it is cell-based. Conditions: Escherichia coli, MG1655DWAK; broth microdilution, 35° C., 18-24 hours. As to the method: The following assay was used to determine the efficacy of tetracycline compounds against common bacteria. Serial dilutions of compounds were prepared in microdilution plates using a Tecan robotic workstation. Mueller Hinton broth cultures of gram negative and gram positive strains were grown or adjusted to match the turbidity of a 0.5 McFarland standard. 1:200 dilutions were made in appropriate broth (cation supplemented Mueller Hinton broth or Haemophilus test medium) to allow a final inoculum of 1×10^5 cfu. Lysed horse blood was used to supplement broth for testing S. pneumoniae. The plates were incubated at 35° C. in ambient air for 18-24 hours, read spectrophotometrically, and checked manually for evidence of bacterial growth. Serial dilutions of compounds were also added to Brucella agar supplemented with laked sheep blood for P. acnes tests. A standard inoculum was transferred to the plate using a stainless steel replicator. After 48 hours of anaerobic incubation at 35° C. plates were examined. The MIC was defined as the lowest concentration of the tetracycline compound that inhibits growth. Table 3 gives the MIC (μg/mL) of selected substituted tetracycline compounds against a variety of gram positive and gram negative bacteria.

For the next data set, the system named is P. aeruginosa K1033. As to the kind of experiment: In vitro MIC assay, P. aeruginosa K1033. The settings on record: Pseudomonas aeruginosa, broth microdilution, 35° C., 18-24 hours. In kind it is cell-based.

Molecules are shown by their SMILES. Converted amounts (≈) assume the structure as drawn.

Take `CN(C)c1cc2c(c3c1CC1CC4[C@H](N(C)C)C(O)=C(C(N)=O)C(=O)[C@@]4(O)C(O)=C1C3=O)OC(=O)N(CC(C)(C)C)C2` (stereo partly shown) [P]: the MIC (against S. pneumoniae 157E; against S. aureus RN450; against S. aureus RN4250; in data set [1]; in the data set on S. aureus MRSA5) was 44 to 64 µg/mL (≈ 75.5 to 110 µM) each time. The “cytotoxicity at 75 μg/mL” value with COS-1 or CHO cell is “minimal cytotoxicity”. In data set [2], the “phototoxicity at 30 μM, incubated in the UV light” value is listed as “minimally phototoxic”.
Consider `CC(=O)c1cc2c(c(N(C)C)c1)CC1CC3[C@H](N(C)C)C(O)=C(C(N)=O)C(=O)[C@@]3(O)C(O)=C1C2=O` (stereo partly shown) [H], for which the MIC against S. pneumoniae 157E was in the range of 44 to 64 µg/mL (≈ 91 to 132 µM); in the data set on S. aureus RN450 it was 44 to 64 µg/mL (≈ 91 to 132 µM); in the data set on E. coli (ATCC 25922) it was 44 to 64 µg/mL (≈ 91 to 132 µM); against S. aureus RN4250 it was 44 to 64 µg/mL (≈ 91 to 132 µM); in the data set on E. coli MG 1655 DWAK, 22 to 43 µg/mL (≈ 45.5 to 88.9 µM); in the data set on P. aeruginosa K1033, 22 to 43 µg/mL (≈ 45.5 to 88.9 µM). Besides, the MIC (in data set [1]; against S. aureus MRSA5) was 44 to 64 µg/mL (≈ 91 to 132 µM) each time. Besides, in the data set with E. coli translation, the IC20 was under 100 µM. Also, the IC50 in the data set with E. coli translation is under 100 µM. The “cytotoxicity at 75 μg/mL” value with COS-1 or CHO cell is “minimal cytotoxicity”. The “phototoxicity at 150 μM, incubated in the dark” value (from here on “phototoxicity at 150 μM”) in data set [2] was “not to be appreciably phototoxic”.
`CN(C)c1cc(C(=O)O)cc2c1CC1CC3[C@H](N(C)C)C(O)=C(C(N)=O)C(=O)[C@@]3(O)C(O)=C1C2=O` (stereo partly shown) [D]: the MIC in the data set with S. pneumoniae 157E, against S. aureus RN450, with E. coli (ATCC 25922), against S. aureus RN4250, against E. coli MG 1655 DWAK and in the data set with P. aeruginosa K1033 was 44 to 64 µg/mL (≈ 90.6 to 132 µM) throughout. In addition, the MIC (in data set [1]; with S. aureus MRSA5) was 44 to 64 µg/mL (≈ 90.6 to 132 µM) in each case. Also, in the data set with E. coli translation, the IC20 is under 100 µM. In the data set with E. coli translation, this molecule came in with an IC50 of under 100 µM. Besides, in the data set on COS-1 or CHO cell, the “cytotoxicity at 75 μg/mL” value is reported as “minimal cytotoxicity”. Also, the “phototoxicity at 30 μM, incubated in the UV light” value in data set [2] is on record as “minimally phototoxic”. Besides, the “phototoxicity at 150 μM” value in data set [2] is listed as “not to be appreciably phototoxic”.
With `CC(=O)c1cccc2c1C(=O)C1=C(O)[C@]3(O)C(=O)C(C(N)=O)=C(O)[C@@H](N(C)C)C3CC1C2` (stereo partly shown) [N], the MIC was in the range of 44 to 64 µg/mL (≈ 99.9 to 145 µM) with S. pneumoniae 157E; 22 to 43 µg/mL (≈ 49.9 to 97.6 µM) with S. aureus RN450; 44 to 64 µg/mL (≈ 99.9 to 145 µM) against E. coli (ATCC 25922); 44 to 64 µg/mL (≈ 99.9 to 145 µM) against S. aureus RN4250; 0 to 21 µg/mL with E. coli MG 1655 DWAK; 0 to 21 µg/mL with P. aeruginosa K1033. In addition, the MIC (in [1]; in the data set on S. aureus MRSA5) was 44 to 64 µg/mL (≈ 99.9 to 145 µM) in each case. The IC20 in the data set with E. coli translation was under 100 µM. In addition, the 50% inhibitory concentration (IC50) with E. coli translation was under 100 µM. The “cytotoxicity at 75 μg/mL” value in the data set on COS-1 or CHO cell is listed as “minimal cytotoxicity”.
In the case of `CN(C)c1cc2cc(-c3ccc(N)cc3)oc2c2c1CC1CC3[C@H](N(C)C)C(O)=C(C(N)=O)C(=O)[C@@]3(O)C(O)=C1C2=O` (stereo partly shown) [Q], the MIC against S. pneumoniae 157E is 22 to 43 µg/mL (≈ 38.4 to 75.1 µM); in the data set on S. aureus RN450 it was 0 to 21 µg/mL; against S. aureus RN4250, 0 to 21 µg/mL; in data set [1], 44 to 64 µg/mL (≈ 76.8 to 112 µM); with S. aureus MRSA5, 0 to 21 µg/mL. The same molecule showed an IC20 in the data set on E. coli translation of under 100 µM. Also, the IC50 in the data set with E. coli translation is under 100 µM.
Turning to `CN(C)c1cccc2c1CC1CC3CC(O)=C(C(N)=O)C(=O)[C@@]3(O)C(O)=C1C2=O` (stereo partly shown) [E], the MIC with S. pneumoniae 157E fell in the range of 44 to 64 µg/mL (≈ 110 to 161 µM); in the data set on S. aureus RN450, 0 to 21 µg/mL; in the data set with E. coli (ATCC 25922), 44 to 64 µg/mL (≈ 110 to 161 µM); in the data set on S. aureus RN4250, 0 to 21 µg/mL; in the data set with E. coli MG 1655 DWAK it was 0 to 21 µg/mL; with P. aeruginosa K1033 it was 0 to 21 µg/mL. Besides, the MIC lay in the range of 22 to 43 µg/mL (≈ 55.2 to 108 µM) in data set [1] and 0 to 21 µg/mL with S. aureus MRSA5. In the data set on E. coli translation, this molecule showed an IC20 of over 100 µM. This molecule came in with an IC50 in the data set with E. coli translation of under 100 µM. For the same molecule, in data set [2], the “phototoxicity at 150 μM” value is “not to be appreciably phototoxic”.

(Values after patent US20070093455A1, “10-substituted tetracyclines and methods of use thereof” (priority 2005, published 2007).)
